Results taken from US8916502B2, “Agent for improving lawn grass qualities” (Cosmo Oil Co., Ltd., priority 2008, dated 2014).

Legend:
Zoysia tenuifolia = experiment: Foliage treatment of Zoysia tenuifolia sod in pots: grass height and dry weight of shoots and stems; type: in vivo; conditions: foliage treatment 150 L/10 a; for Grass height: 26 days after treatment; for Dry weight of stems: harvested 4 months after treatment
Experimental: A commercially available Zoysia tenuifolia sod was cut to a size of 10×10 cm. Uniform volcanic ash soil (andosol) was introduced into a vessel (1/44,444×10 a) in a sufficient amount per pot, and a chemical fertilizer (N—P—K=8-8-8) was applied thereon in an amount, in terms of nitrogen, of 2.6 kg-N/10 a. The cut Zoysia tenuifolia sod was transplanted into the pot. […] The grass height was measured 26 days after the treatment, and thereby the dwarfing effect was investigated.

bentgrass = experiment: Foliage treatment of bentgrass sod in pots: leaf count and L*a*b* colour; type: in vivo; conditions: 30 days after treatment, 5-aminolevulinic acid hydrochloride 200 mg/10 a and/or prohexadione calcium salt 12.5 g/10 a; for Color system L* / Color system b* / Color system a*: colorimeter; for Color system a*: more negative = greener; for Plant count of lawn grass: foliage treatment 150 L/10 a
From the text: A commercially available bentgrass sod was cut into a circular form having a diameter of 10 cm. Uniform volcanic ash soil (andosol) was introduced into a vessel (1/17,500×10 a) in a sufficient amount per pot, and a liquid fertilizer (Hyponica) was applied thereon in an amount, in terms of nitrogen, of 3 kg-N/10 a. The cut bentgrass sod was transplanted into the pot.

[1] = 5-aminolevulinic acid hydrochloride 600 mg/10 a and/or paclobutrazol 36 g/10 a
[2] = 5-aminolevulinic acid hydrochloride 600 mg/10 a and/or trinexapac-ethyl 20 g/10 a
[3] = 5-aminolevulinic acid hydrochloride 600 mg/10 a and/or prohexadione calcium salt 20 g/10 a
[4] = 5-aminolevulinic acid hydrochloride 600 mg/10 a and/or flurprimidol 84 g/10 a

SMILES	Dry weight of shoots (Zoysia tenuifolia; [1]) [g]	Grass height (Zoysia tenuifolia; [1]) [cm]	Dry weight of stems (Zoysia tenuifolia; [1]) [g]	Dry weight of shoots (Zoysia tenuifolia; [2]) [g]	Grass height (Zoysia tenuifolia; [2]) [cm]	Dry weight of stems (Zoysia tenuifolia; [2]) [g]	Dry weight of shoots (Zoysia tenuifolia; [3]) [g]	Grass height (Zoysia tenuifolia; [3]) [cm]	Dry weight of stems (Zoysia tenuifolia; [3]) [g]	Color system L* (bentgrass)	Color system b* (bentgrass)	Color system a* (bentgrass)	Plant count of lawn grass (bentgrass) [plants/9 cm^2]	Dry weight of shoots (Zoysia tenuifolia; [4]) [g]	Grass height (Zoysia tenuifolia; [4]) [cm]	Dry weight of stems (Zoysia tenuifolia; [4]) [g]
CC(C)(C)[C@@H](O)[C@@H](Cc1ccc(Cl)cc1)n1cncn1 (racemic) [paclobutrazol, (2RS,3RS)-1-(4-chlorophenyl)-4,4-dimethyl-2-(1H-1,2,4-triazol-1-yl)pentan-3-ol]	0.81	3.5	14.8													
CCOC(=O)C1CC(=O)C(=C(O)C2CC2)C(=O)C1 (stereo not drawn) [Trinexapac-ethyl, ethyl=4-cyclopropyl-α-hydroxymethylene)-3,5-dioxocyclohexane carboxylate]				0.44	3.5	12.8										
CCC(=O)C1=C([O-])CC(C(=O)[O-])CC1=O.[Ca+2] (centres unmarked) [Prohexadione calcium salt, calcium 3-oxido-5-oxo-4-propionyl-3-cyclohexene carboxylate]							0.72	3.5	11.3	33.2	17.0	−8.9	65.5			
Cl.NCC(=O)CCC(=O)O [5-aminolevulinic acid hydrochloride]	0.90	4.2	12.0	0.90	4.2	12.0	0.90	4.2	12.0	34.0	17.6	−8.8	54.2	0.90	4.2	12.0
